Where “and” joins values, the source holds several entries; their conditions need not be identical. Identical values can stand only once.
Legend:
[1] = test system: function of transplanted thyroids; assay: Thyroid graft assay for HVGD (125I absorption of thyroid transplanted in kidney capsule); format: in vivo, mice
Method: In this transplantation model for HVGD, thyroid glands from donor mice were transplanted in the kidney's capsules of recipient mice. One week later the transplanted mice were injected with ^125I, and the radioactivity of each kidney (the recipient or the untransplanted kidney) was measured after 20 hours. Δcpm was calculated by subtracting the ^125I absorbance of the untransplanted kidneys from the ^125I absorbance of the recipient kidneys in the same treatment. The mean function index (MFI) for treatment was calculated by dividing the mean Δcpm for the tested (Copolymer 1) treatment by the mean Δcpm for the PBS treatment. P values were obtained by the t test. This assay indicates objectively and quantitatively not only the graft survival, but also the function (iodine absorbance) of the transplanted thyroid tissue (Isakov et al., 1979).
The transplanted mice were treated daily with Copolymer 1 600 μg/day (300 μg ip+300 μg sc) in PBS solution, starting 7 days before transplantation. The first Cop 1 treatment on day −7 was injected sc in ICFA as a depot dose. Control mice were treated daily with PBS alone and PBS with ICFA on day −7 before transplantation.
To test the effect of Copolymer 1 treatment on the function of transplanted thyroids in the B10.D2→BALB/c model, thyroid glands from donors B10.D2 were transplanted in the kidney's capsules of BALB/c mice. After one week the transplanted mice were injected with ^125I, and the radioactivity of each kidney was measured 20 hours later. cpm was calculated by subtracting the ^125I absorbance of the untransplanted kidneys from the ^125I absorbance of the recipient kidneys in the same treatment. The mean function index (MFI) for each treatment was calculated by dividing the mean ^125I absorbance of (transplanted kidney-untransplanted kidney) in the tested treatment by the mean ^125I absorbance of (transplanted kidney-untransplanted kidney) in the PBS treatment, as follows: […]

skin graft rejection = assay: Skin graft transplantation model for HVGD; format: in vivo, mice
Method: Recipient mice were dorsally transplanted with circular pieces of donor skin. Mice were inspected daily. Grafts were considered rejected when no viable donor epidermis remained. The results are expressed in mean survival time (MST). P values were obtained by analysis of variance (ANOVA).
[…] The first Cop 1 treatment on day −7 was injected sc in ICFA as a depot dose. Control mice were treated daily with PBS alone and PBS with ICFA on day −7 before transplantation.
Grafts were inspected daily. Rejection was considered positive when no viable donor epidermis remained. […]

[2] = test system: B10.D2 responder spleen cells with irradiated C57BL/6 spleen stimulator cells; assay: MLR primary assay, Table 1; format: cell-based, mice; settings: [3H]-thymidine after 96 hours
Method: The effect of Copolymer 1 (Batch I) on mixed lymphocyte cultures across major histocompatibility barriers was tested. T cell proliferation was assessed in six different MHC-disparate strain combinations. […] To exclude the possibility that higher concentrations of Copolymer 1 (50–100 μg/well) might be toxic to the responder cells, responder cells from background well and from wells incubated with 25–100 μg/well of Copolymer 1 in the presence of stimulator cells for 72 hours in a primary assay, were rechallenged in a subsequent secondary assay with IL-2 (5,000 U/well).

[3] = test system: proliferation of B10.PL (H-2u) responder cells to PL/J stimulator cells; assay: Mixed lymphocyte reaction (MLR) across minor histocompatibility barriers; format: cell-based, mice; settings: 20 μg/well, Cop 1 Batch I, 1:1 ratio of responder to stimulator cells
Method: Responder cells for MLR reactions across major histocompatibility barriers were harvested from spleen of non-immunized mice while responder cells for MLR across minor histocompatibility barriers were harvested from mice which were preimmunized with irradiated (30 Gy) 50×10^6 stimulator spleen cells 21 days before. Responder cells (5×10^5 spleen cells per well) were tested for their proliferative response by plating with different amounts (2.5 to 10×10^5) of irradiated stimulator cells, in presence or absence of various peptide inhibitors (10–100 μg per well). Cultures were set up in 200 μl media containing 10% FCS in flat-bottom microtiter plates. After 4 days of incubation, cultures were pulsed with 1 μCi of [^3H]thymidine for an additional 16 hours. Results are represented as mean counts per minute (cpm) thymidine incorporation from triplicate cultures.
To investigate the feasibility of inhibition of MLR by Copolymer 1, an MLR system was developed in which Copolymer 1 was tested for its ability to inhibit the proliferation of B10.PL (H-2^u) responder cells to stimulator cells of either the same (PL/J) or different (BALB/c) H-2 haplotype. For comparison, the inhibitory MBP Ac 1-11[4A], MBP 35-47, a combination of Ac 1-1[4A]+MBP 35-47, MBP 89-101 and KM-core peptides, described in Schlegel et al. (1994), were used in the MLR experiments.
The inhibition obtained by Copolymer 1 was similar (in response to minor histocompatibility antigen) or even higher (in response to major histocompatibility antigen) than the inhibition obtained with the combination of the two synthetic peptides Ac 1-11[4A] and MBP 35-47, which specifically bind to the class II molecules I-A^u and the I-E^u, respectively. The molar efficiency of Copolymer 1 of M.W. 6000 is even higher since the molecular weight of the synthetic peptides is 4–5 fold lower.

[4] = B10.D2 → BALB, H-2d, another experiment (N 5), Cop 1 600 μg/day
[5] = B10.D2 → BALB/c, H-2d, Cop 1 600 μg, N 10
[6] = B10PL → PL/J, H-2d, Cop 1 600 μg/day
[7] = C57BL → BALB, H-2b → H-2d, Cop 1 600 μg/day
[8] = C57BL → C3H, H-2b, Cop 1 600 μg/day

Glatiramer acetate [Cop 1]
Mean 125I Absorption, Transplanted Kidney (cpm) [1, 4]: 1035 cpm | Mean 125I Absorption, Untransplanted Kidney (cpm) [1, 4]: 137 cpm | cpm (transplanted minus untransplanted kidney) [1, 4]: 898 cpm | Mean 125I Absorption, Transplanted Kidney (cpm) [1, 5]: 2901 cpm | Mean 125I Absorption, Untransplanted Kidney (cpm) [1, 5]: 450 cpm | cpm (transplanted minus untransplanted kidney) [1, 5]: 2451 cpm | Mean 125I Absorption, Transplanted Kidney (cpm) [1, 6]: 2009 cpm | Mean 125I Absorption, Untransplanted Kidney (cpm) [1, 6]: 332 cpm | cpm (transplanted minus untransplanted kidney) [1, 6]: 1677 cpm | Mean 125I Absorption, Transplanted Kidney (cpm) [1, 7]: 10759 cpm | Mean 125I Absorption, Untransplanted Kidney (cpm) [1, 7]: 924 cpm | cpm (transplanted minus untransplanted kidney) [1, 7]: 9835 cpm | Mean 125I Absorption, Transplanted Kidney (cpm) [1, 8]: 1643 cpm | Mean 125I Absorption, Untransplanted Kidney (cpm) [1, 8]: 281 cpm | cpm (transplanted minus untransplanted kidney) [1, 8]: 1362 cpm | MFI (mean function index) ([1]; folds over PBS treatment, B10.D2 → BALB, H-2d, another experiment (N 5), Cop 1 600 μg/day): 5.2 | MFI (mean function index) ([1]; folds over PBS treatment, B10.D2 → BALB/c, H-2d, Cop 1 600 μg, N 10): 3.2 | MFI (mean function index) ([1]; relative to PBS treatment, B10PL → PL/J, H-2d, Cop 1 600 μg/day): 2.5 | MFI (mean function index) ([1]; relative to PBS treatment, C57BL → BALB, H-2b → H-2d, Cop 1 600 μg/day): 3.0 | MFI (mean function index) ([1]; relative to PBS treatment, C57BL → C3H, H-2b, Cop 1 600 μg/day): 2.3 | MST ± SD (Mean Survival Time of skin graft) (skin graft rejection; B10.D2 → BALB/c, H-2d, Cop 1 600 μg/day (ip+sc) from day −7): 20.6 days and 20.6 ± 3.3 days | MST ± SD (Mean Survival Time of skin graft) (skin graft rejection; B10.D2 → BALB/c, H-2d, Cop 1 600 μg/day (ip+sc) from day −7, listed as Copolymer 1): 20.6 days | mean graft survival time (MST) (skin graft rejection; B10.D2 → BALB/c, 600 μg/day, text refers to Table 6, PBS 26 days): 34 days | MST ± SD (Mean Survival Time of skin graft) (skin graft rejection; B10.D2 → BALB/c, Cop 1 300 μg/day): 20.4 ± 4.5 days | MST ± SD (Mean Survival Time of skin graft) (skin graft rejection; B10.D2 → BALB/c, Cop 1 300 μg/day, listed as Copolymer 1): 20.4 days | MST ± SD (Mean Survival Time of skin graft) (skin graft rejection; B10PL → PL/J, H-2u, Cop 1 600 μg/day): 17.6 ± 5.1 | MST ± SD (Mean Survival Time of skin graft) (skin graft rejection; C57BL → C3HSW, H-2b → H-2d, Cop 1 600 μg/day): 18.5 ± 3.3 | MST ± SD (Mean Survival Time of skin graft) (skin graft rejection; Haplotype H-2b, Cop 1 600 μg/day): 17.7 ± 2.1 | Primary Assay cpm ([2]; Cop 1 25 μg/well (Batch I)): 15,953 cpm | Primary Assay cpm ([2]; Cop 1 50 μg/well (Batch I)): 3,663 cpm | Primary Assay cpm ([2]; Cop 1 100 μg/well (Batch I)): 283 cpm | inhibition of MLR [3]: 63%
